The text below walks through data of patent US10906889B2, “Polycyclic inhibitors of cyclin-dependent kinase 7 (CDK7)” (Dana-Farber Cancer Institute, Inc., priority 2013, dated 2021).

The test system of one assay is Jurkat cells. The assay can be described thus: Cell proliferation (CellTiter-Glo, 72 hour), Jurkat. It counts as cell-based. The conditions noted are these: Homo sapiens, blood cancer cell line. (ATP-based viability assays read luminescence as a measure of living cells.)
Another assay has as its target T1, CDK7 (Homo sapiens, UniProt P50613).
T1 construct: purchased Life Technologies (assay service)
Put plainly: Adapta kinase assay (Life Technologies), CDK7. The format is biochemical.

Setting [1] is: Table 1C, co-factors cyclin H and MNAT1, read-out: CDK7 IC50.

Like-named read-outs stand apart in the source and are kept apart here.

T1 sequence (P50613 whole entry): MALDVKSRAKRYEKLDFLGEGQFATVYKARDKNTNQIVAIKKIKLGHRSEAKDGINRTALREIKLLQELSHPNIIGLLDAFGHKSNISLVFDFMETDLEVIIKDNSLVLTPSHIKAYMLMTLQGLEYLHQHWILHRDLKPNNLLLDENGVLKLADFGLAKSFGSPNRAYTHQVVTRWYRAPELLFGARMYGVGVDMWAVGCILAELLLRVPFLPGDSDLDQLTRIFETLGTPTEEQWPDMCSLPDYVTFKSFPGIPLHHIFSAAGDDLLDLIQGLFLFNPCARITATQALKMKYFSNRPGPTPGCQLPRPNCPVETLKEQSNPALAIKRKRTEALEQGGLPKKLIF
T1 sequence (P51946 whole entry partner): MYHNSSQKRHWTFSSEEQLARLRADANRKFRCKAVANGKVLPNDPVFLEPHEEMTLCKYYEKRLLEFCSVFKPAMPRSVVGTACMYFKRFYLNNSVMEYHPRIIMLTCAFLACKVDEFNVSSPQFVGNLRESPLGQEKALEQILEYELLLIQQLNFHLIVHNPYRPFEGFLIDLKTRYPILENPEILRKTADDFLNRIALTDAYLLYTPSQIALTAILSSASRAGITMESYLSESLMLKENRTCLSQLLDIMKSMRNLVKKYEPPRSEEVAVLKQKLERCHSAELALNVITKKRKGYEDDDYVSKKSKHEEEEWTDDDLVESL
T1 sequence (P51948 whole entry partner): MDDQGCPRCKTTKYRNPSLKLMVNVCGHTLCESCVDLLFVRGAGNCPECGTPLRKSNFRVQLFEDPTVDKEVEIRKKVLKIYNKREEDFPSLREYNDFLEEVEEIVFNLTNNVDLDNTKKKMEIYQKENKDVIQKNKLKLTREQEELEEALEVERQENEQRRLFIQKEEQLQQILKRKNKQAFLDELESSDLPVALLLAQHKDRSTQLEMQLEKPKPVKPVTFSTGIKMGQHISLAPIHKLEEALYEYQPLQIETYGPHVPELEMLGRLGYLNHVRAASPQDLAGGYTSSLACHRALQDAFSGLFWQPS

`CN(C)C/C=C/C(=O)Nc1ccc(C(=O)NC2CC(O)CC(Nc3ncc(Cl)c(-c4c[nH]c5ccccc45)n3)C2)cc1` (racemic) [Compound 109, (+/−)-N-(-3-(5-chloro-4-(1H-indol-3-yl)pyrimidin-2-ylamino)-5-hydroxycyclohexyl)-4-((E)-4-(dimethylamino)but-2-enamido)benzamide]: the IC50 – broadly, the concentration that gives 50% inhibition – in the assay on Jurkat cells is less than 500 nM; on CDK7 (setting [1]), less than 100 nM. The corresponding values for `CN(C)C/C=C/C(=O)Nc1ccc(C(=O)NC2CC(F)CC(Nc3ncc(Cl)c(-c4c[nH]c5ccccc45)n3)C2)cc1` (racemic) [Compound 119, (+/−)-N-(3-(5-chloro-4-(1H-indol-3-yl)pyrimidin-2-ylamino)-5-fluorocyclohexyl)-4-((E)-4-(dimethylamino)but-2-enamido)benzamide] are less than 500 nM and less than 100 nM. With `CN(C)C/C=C/C(=O)Nc1ccc(C(=O)NC2CCC(Nc3ncc(Cl)c(-c4c[nH]c5ccccc45)n3)CC2)cc1` (stereo not drawn) [Compound 105], the IC50 at CDK7 (setting [1]) is less than 100 nM; on CDK7 (Table 2, co-factors cyclin H and MNAT1, read-out: CDK7 (calculated IC50)), less than 100 nM. `CN(C)C/C=C/C(=O)Nc1ccc(C(=O)N[C@H]2CC[C@H](Nc3ncc(Cl)c(-c4c[nH]c5ccccc45)n3)CC2)cc1` [Compound 106]: the IC50 on CDK7 (setting [1]) is less than 100 nM. `CN(C)C/C=C/C(=O)Nc1ccc(C(=O)N[C@H]2CCC[C@@H](Nc3nccc(-c4c[nH]c5ccccc45)n3)C2)cc1` [Compound 132, N-((1S,3R)-3-(4-(1H-indol-3-yl)pyrimidin-2-ylamino)cyclohexyl)-4-((E)-4-(dimethylamino)but-2-enamido)benzamide]: the IC50 at CDK7 (setting [1]) was greater than 1000 nM. Consider `C=CC(=O)Nc1ccc([C@@H](N[C@H]2CCC[C@@H](Nc3ncc(Cl)c(-c4c[nH]c5ccccc45)n3)C2)C(F)(F)F)cc1` [Compound 136, N-(4-((R)-1-((1S,3R)-3-(5-chloro-4-(1H-indol-3-yl)pyrimidin-2-ylamino)cyclohexylamino)-2,2,2-trifluoroethyl)phenyl)acrylamide], for which the IC50 at CDK7 (setting [1]) is greater than 1000 nM.

For the molecule `CN(C)C/C=C/C(=O)Nc1ccc(C(=O)N[C@H]2CCC[C@@H](Nc3ncc(Cl)c(-c4cn(C)c5ccccc45)n3)C2)cc1` [Compound 150], the half-inhibitory concentration (IC50) at CDK7 (setting [1]) was less than 100 nM. Same read-out and setting: under `C=CC(=O)Nc1ccc(C(=O)N[C@H]2CCC[C@@H](Nc3ncc(Cl)c(-c4n[nH]c5ccccc45)n3)C2)cc1` [Compound 151, 4-acrylamido-N-((1S,3R)-3-((5-chloro-4-(1H-indazol-3-yl)pyrimidin-2-yl)amino)cyclohexyl)benzamide] stands less than 100 nM.

For `C=CC(=O)Nc1ccc(C(=O)N[C@H]2CCC[C@@H](Nc3ncc(Cl)c(-c4c(C)[nH]c5ccccc45)n3)C2)cc1` [Compound 153, 4-acrylamido-N-((1S,3R)-3-((5-chloro-4-(2-methyl-1H-indol-3-yl)pyrimidin-2-yl)amino)cyclohexyl)benzamide], on CDK7 (setting [1]), the 50% inhibitory concentration (IC50) was less than 100 nM. On the same count and under the same terms, to `Cc1[nH]c2ccccc2c1-c1nc(N[C@@H]2CCC[C@H](NC(=O)c3ccc(NC(=O)/C=C/CN(C)C)cc3)C2)ncc1Cl` [Compound 154, N-((1S,3R)-3-((5-chloro-4-(2-methyl-1H-indol-3-yl)pyrimidin-2-yl)amino)cyclohexyl)-4-((E)-4-(dimethylamino)but-2-enamido)benzamide] belongs less than 100 nM; to `C=CC(=O)Nc1cccc(CO[C@H]2CC[C@H](Nc3ncc(Cl)c(-c4c[nH]c5ccccc45)n3)CC2)c1` [Compound 155, N-(3-((((1R,4R)-4-((5-chloro-4-(1H-indol-3-yl)pyrimidin-2-yl)amino)cyclohexyl)oxy)methyl)phenyl)acrylamide], greater than 1000 nM.

`CON(C)C/C=C/C(=O)Nc1ccc(C(=O)N[C@H]2CCC[C@@H](Nc3ncc(Cl)c(-c4c[nH]c5ccccc45)n3)C2)cc1` [Compound 160]: on CDK7 (setting [1]), the IC50 was in the range of 100 to 1000 nM.
